Test results taken from BindingDB's records for doi:10.1021/jm990383f (Upjohn, 2000).

Tests used:
[1] = target: T1, Gag-Pol polyprotein [588-1027,P823L]/[588-1147,P823L] (Human immunodeficiency virus 1, UniProt P04585, P823L); test: HIV-1 RT Assay; conditions: pH 8.3; 28 °C
T1 construct: 588-1027; 588-1147
From the text: (§1) The IC50 of reverse transcriptase is the concentration that inhibits 50% of recombinant HIV-1 RT RNA-directed DNA polymerase activity in vitro.

[2] = target: T2, Gag-Pol polyprotein [588-1027]/[588-1147] (Human immunodeficiency virus 1, UniProt P04585); test: HIV-1 RT Assay; conditions: pH 8.3; 28 °C
T2 construct: 588-1027; 588-1147
From the text: as §1

| SMILES | IC50 [1] [µM] | IC50 [2] [µM] |
| --- | --- | --- |
| C#CCc1c(C)nn(-c2ccccc2)c1-c1ccccc1 [3-methyl-1,5-diphenyl-4-(prop-2-yn-1-yl)-1H-pyrazole] | 1.54 | 13.4 |
| CCc1c(CCO)nn(-c2ccccc2)c1-c1ccccc1 [1,5-Diphenyl-3-(2-hydroxyethyl)-4-ethylpyrazole] |  | > 50 |
